What is called IC50 is the concentration at which inhibition is half-maximal. For orientation: melting point means the temperature of the solid-liquid transition. As usually defined, the Ki is the dissociation constant of the complex between target and ligand, obtained from inhibition or displacement. Low values mean a stronger hold on the target, high ones a looser hold on the target.

Where two headings read alike, the source gives them in different places.

The values below come from paper PMC9437094, “Docking study, molecular dynamic, synthesis, anti-α-glucosidase assessment, and ADMET prediction of new benzimidazole-Schiff base derivatives” (Scientific Reports, 2022).

Data set [1] has as its target α-glucosidase from Saccharomyces cerevisiae (Saccharomyces cerevisiae, UniProt P53341). Put plainly: biochemical. It is filed as biochemical. The conditions noted are these: for IC50: substrate p-nitrophenyl glucopyranoside, 37 °C. The protocol: Next, absorbance was measured at 405 nm by spectrophotometer (Gen5, Power wave xs2, BioTek, USA), and IC50 value for each tested compound was calculated by taking advantage of the nonlinear regression curve (logit method).

The next data set has as its system HDF. Kind of data set: MTT cytotoxicity assay on HDF. The conditions noted are these: HDF human normal cell line, at 200 μM. It is filed as cell-based.
The test system of a further data set is MCF-7. Kind of data set: MTT cytotoxicity assay on MCF-7. It is filed as cell-based. The conditions noted are these: MCF-7 human cancer cell line, at 200 μM. (In general: Formazan colour is commonly taken as a measure of viable cells.)
The target in the next data set is α-glucosidase (Saccharomyces cerevisiae, UniProt P53341). Put plainly: Enzyme kinetic study (Lineweaver–Burk and secondary plot). It is filed as biochemical. The protocol:
Furthermore, the plot of the Km versus different concentrations of compound 8p gave an estimate of Ki as the inhibition constant (Fig. 2b). Ki value for the latter compound was 60 µM.
A Lineweaver–Burk plot was generated to identify the type of inhibition and the Michaelis–Menten constant (Km) value was determined from plot between reciprocal of the substrate concentration (1/[S]) and reciprocal of enzyme rate (1/V) over various inhibitor concentrations. Experimental inhibitor constant (Ki) value was constructed by secondary plots of the inhibitor concentration [I] versus Km.

Chain of α-glucosidase from Saccharomyces cerevisiae (P53341 whole entry): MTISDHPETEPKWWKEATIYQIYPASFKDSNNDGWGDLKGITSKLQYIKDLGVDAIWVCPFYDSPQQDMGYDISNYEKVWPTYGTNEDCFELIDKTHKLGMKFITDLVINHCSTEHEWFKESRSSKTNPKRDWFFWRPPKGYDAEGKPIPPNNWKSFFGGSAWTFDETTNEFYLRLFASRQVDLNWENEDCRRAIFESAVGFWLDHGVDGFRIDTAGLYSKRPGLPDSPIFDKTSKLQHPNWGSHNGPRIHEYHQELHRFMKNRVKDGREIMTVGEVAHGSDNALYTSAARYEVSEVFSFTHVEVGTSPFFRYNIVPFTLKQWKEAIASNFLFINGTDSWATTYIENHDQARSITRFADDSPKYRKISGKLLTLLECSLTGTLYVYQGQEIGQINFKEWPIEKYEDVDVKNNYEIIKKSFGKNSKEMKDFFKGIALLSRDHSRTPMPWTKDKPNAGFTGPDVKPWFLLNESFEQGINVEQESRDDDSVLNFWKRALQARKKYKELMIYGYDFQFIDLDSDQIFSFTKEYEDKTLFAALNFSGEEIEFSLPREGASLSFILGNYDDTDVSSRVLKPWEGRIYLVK
Chain of α-glucosidase (P53341 whole entry): as above

As to `COc1ccc(-c2nc3cc(C(=O)N/N=C/c4cc(OC)c(OC)c(OC)c4)ccc3[nH]2)cc1` [Compound 8d, (E)-2-(4-methoxyphenyl)-N'-(3,4,5-trimethoxybenzylidene)-1H-benzo[d]imidazole-5-carbohydrazide], the “inhibitory activity against α-glucosidase (in words)” value in data set [1] (yeast α-glucosidase) is “inactive”.

In the case of `COc1ccc(-c2nc3cc(C(=O)N/N=C/c4ccc(Cl)cc4)ccc3[nH]2)cc1` [Compound 8l, (E)-N'-(4-chlorobenzylidene)-2-(4-methoxyphenyl)-1H-benzo[d]imidazole-5-carbohydrazide], the melting point was above 250 °C. Besides, in data set [1] (IC50, yeast α-glucosidase), the IC50 was determined as 103 ± 5.5 µM.

For the compound `COc1ccc(-c2nc3cc(C(=O)N/N=C/c4cc5c(cc4[N+](=O)[O-])OCO5)ccc3[nH]2)cc1` [Compound 8o, (E)-2-(4-methoxyphenyl)-N'-((6-nitrobenzo[d][1,3]dioxol-5-yl)methylene)-1H-benzo[d]imidazole-5-carbohydrazide], the melting point is above 250 °C. This compound also gave a 50% inhibitory concentration (IC50) in data set [1] (IC50, yeast α-glucosidase) of 123 ± 6.1 µM.

The compound `COc1ccc(-c2nc3cc(C(=O)N/N=C/c4ccc(F)cc4)ccc3[nH]2)cc1` [Compound 8j, (E)-N'-(4-fluorobenzylidene)-2-(4-methoxyphenyl)-1H-benzo[d]imidazole-5-carbohydrazide] showed a melting point above 250 °C. In data set [1] (IC50, yeast α-glucosidase), this compound showed an IC50 of 84.1 ± 4.5 µM.

`COc1ccc(-c2nc3cc(C(=O)N/N=C/c4ccc(O)c(OC)c4)ccc3[nH]2)cc1` [Compound 8g, (E)-N'-(4-hydroxy-3-methoxybenzylidene)-2-(4-methoxyphenyl)-1H-benzo[d]imidazole-5-carbohydrazide] displayed a melting point above 250 °C. The IC50 in data set [1] (yeast α-glucosidase, read-out: IC50) was found to be 287 ± 7.4 µM.

`COc1ccc(-c2nc3cc(C(=O)N/N=C/c4cccc(F)c4)ccc3[nH]2)cc1` [Compound 8i, (E)-N'-(3-fluorobenzylidene)-2-(4-methoxyphenyl)-1H-benzo[d]imidazole-5-carbohydrazide] came in with a melting point above 250 °C. Also, half-maximal inhibition in data set [1] (IC50, yeast α-glucosidase) (IC50) was put at 88.1 ± 6 µM.

In data set [1] (IC50, yeast α-glucosidase), `COc1ccc(-c2nc3cc(C(=O)N/N=C/c4ccccc4F)ccc3[nH]2)cc1` [Compound 8h, (E)-N'-(2-fluorobenzylidene)-2-(4-methoxyphenyl)-1H-benzo[d]imidazole-5-carbohydrazide] yielded an IC50 of 69 ± 4 µM. The “cytotoxicity (MTT)” value in the data set with HDF and in the data set with MCF-7 was “non-cytotoxic” throughout.

The compound `COc1ccc(-c2nc3cc(C(=O)N/N=C/c4ccc(C)cc4)ccc3[nH]2)cc1` [Compound 8b, (E)-2-(4-methoxyphenyl)-N'-(4-methylbenzylidene)-1H-benzo[d]imidazole-5-carbohydrazide] returned a melting point above 250 °C. The compound also gave an IC50 in data set [1] (IC50, yeast α-glucosidase) of 102 ± 5.6 µM.

In the case of `COc1ccc(-c2nc3cc(C(=O)N/N=C/c4cccc(Oc5ccccc5)c4)ccc3[nH]2)cc1` [Compound 8e, (E)-2-(4-methoxyphenyl)-N'-(3-phenoxybenzylidene)-1H-benzo[d]imidazole-5-carbohydrazide], the melting point was above 250 °C. In data set [1] (IC50, yeast α-glucosidase), the midpoint of inhibition, the IC50, lay at 127 ± 6.5 µM.

In turn, `COc1ccc(-c2nc3cc(C(=O)N/N=C/c4ccc([N+](=O)[O-])cc4)ccc3[nH]2)cc1` [Compound 8n, (E)-2-(4-methoxyphenyl)-N'-(4-nitrobenzylidene)-1H-benzo[d]imidazole-5-carbohydrazide] returned a melting point above 250 °C. Moreover, the IC50 in data set [1] (IC50, yeast α-glucosidase) came to 112 ± 5.7 µM.

`COc1ccc(-c2nc3cc(C(=O)N/N=C/c4cccs4)ccc3[nH]2)cc1` [Compound 8p, (E)-2-(4-methoxyphenyl)-N'-(thiophen-2-ylmethylene)-1H-benzo[d]imidazole-5-carbohydrazide] showed a melting point above 250 °C. The compound also displayed a half-inhibitory concentration (IC50) in data set [1] (IC50, yeast α-glucosidase) of 60.1 ± 3.6 µM. The “cytotoxicity (MTT)” value in the data set with HDF was “non-cytotoxic”. Besides, in the data set with MCF-7, the “cytotoxicity (MTT)” value is reported as “non-cytotoxic”. For the same compound, at α-glucosidase (Lineweaver–Burk plot), the type of inhibition entry is given as “competitive inhibitor”. Also, the affinity on α-glucosidase (secondary plot of Km versus inhibitor concentration), expressed as Ki, was 60 µM.

Compound `COc1ccc(/C=N/NC(=O)c2ccc3[nH]c(-c4ccc(OC)cc4)nc3c2)cc1` [Compound 8c, (E)-N'-(4-methoxybenzylidene)-2-(4-methoxyphenyl)-1H-benzo[d]imidazole-5-carbohydrazide] registered a melting point above 250 °C. Inhibition in data set [1] (IC50, yeast α-glucosidase) was half-maximal at 110 ± 5.5 µM (IC50).

With `COc1ccc(-c2nc3cc(C(=O)N/N=C/c4cccc(Br)c4)ccc3[nH]2)cc1` [Compound 8m, (E)-N'-(3-bromobenzylidene)-2-(4-methoxyphenyl)-1H-benzo[d]imidazole-5-carbohydrazide], the melting point was above 250 °C. The same compound showed an IC50 in data set [1] (IC50, yeast α-glucosidase) of 97 ± 4.4 µM.

In data set [1] (IC50, yeast α-glucosidase), `COc1ccc(-c2nc3cc(C(=O)N/N=C/c4cccc(O)c4)ccc3[nH]2)cc1` [Compound 8f, (E)-N'-(3-hydroxybenzylidene)-2-(4-methoxyphenyl)-1H-benzo[d]imidazole-5-carbohydrazide] came in with a 50% inhibitory concentration (IC50) of 181 ± 8.5 µM.

On to `COc1ccc(-c2nc3cc(C(=O)N/N=C/c4ccccc4Cl)ccc3[nH]2)cc1` [Compound 8k, (E)-N'-(2-chlorobenzylidene)-2-(4-methoxyphenyl)-1H-benzo[d]imidazole-5-carbohydrazide], for which the melting point is above 250 °C. Besides, in data set [1] (IC50, yeast α-glucosidase), the IC50 was determined as 90 ± 7.5 µM.

For the compound `COc1ccc(-c2nc3cc(C(=O)N/N=C/c4ccccc4)ccc3[nH]2)cc1` [Compound 8a, (E)-N'-benzylidene-2-(4-methoxyphenyl)-1H-benzo[d]imidazole-5-carbohydrazide], the melting point is above 250 °C. In addition, the half-maximal inhibitory concentration (IC50) in data set [1] (IC50, yeast α-glucosidase) is 70.6 ± 6.8 µM. Besides, the “cytotoxicity (MTT)” value with HDF is recorded as “non-cytotoxic”. The “cytotoxicity (MTT)” value in the data set on MCF-7 is reported as “non-cytotoxic”.
